From article PMC10488051, “Screening, Synthesis and Biochemical Characterization of SARS-CoV-2 Protease Inhibitors” (International Journal of Molecular Sciences, 2023)

Target: mutant PL^proC111S (Severe acute respiratory syndrome coronavirus 2, UniProt P0DTD1, C1674S)
Type: binding, SARS-CoV-2

With `Nc1ccccc1SSc1ccccc1N` [Compound 32] the “Thermal effect (Tm) on mutant PL^proC111S” value was “but not the mutant PL^proC111S”.
